According to US6927211B2, “Method for reducing toxicity of combined chemotherapies” (Bristol-Myers Squibb Company, priority 2000, dated 2005):
Entries after “also recorded” stand apart in the source; their conditions may differ.

Legend:
Assay type in all cases: biochemical
human cardiac microsomes [1] = test: NADPH oxidation by deoxycholate-solubilized human heart microsomes incubated with DOX, plus or minus taxanes; settings: 10 μM DOX, 1-10 μM taxane; FIG. 5
Procedure: (§1) 105,000 g pellets from human myocardium homogenates are solubilized with deoxycolate and reconstituted at the final concentration of 0.025 mg prot/ml with 10 μM DOX, 1-10 μM taxane, 0.1 mM NADPH, in 0.3 M NaCl, pH 7.0, 37° C.
(§2) Electron flow from NADPH cytochrome P-450 reductase to the quinone moiety of DOX is detected by monitoring NADPH oxidation. Redox coupling of the semiquinone with oxygen is detected by monitoring formation of the superoxide anion radical with the superoxide dismutase-inhibitable reduction of cytochrome c (25 μM). These assays are performed in a Hewlett Packard 8453A UV/VIS/NIR spectrometer equipped with computer-assisted corrections for scatter and turbidity.

human cardiac cytosol [2] = test: Conversion of DOX aglycone into DOXol aglycone, plus or minus taxanes, in human cardiac cytosol; settings: for stimulation of conversion of DOX aglycone into DOXol aglycone (in words): human cardiac cytosol, FIG. 4; for doxorubicinolone formation from doxorubicinone: taxane 1 μM, without taxane 0.8±0.1, n=3, P<0.05
Procedure: (§3) Human myocardium is obtained from patients undergoing aorto-coronary bypass grafting. All samples were routinely disposed of by the surgeons from the lateral aspect of excluded right atrium during cannulation procedures for cardio-pulmonary by-pass. After storage at −80° C., pools of 15-20 samples are processed for cytosol preparation by sequential homogenization, ultracentrifugation and overnight 65% ammonium sulfate precipitation of 105,000 g supernatants. Next, cytosol is dialyzed against 100 mM Tris HCl-40 mM KCl, pH 8.9, diluted to 3 mg protein/ml with the same buffer, and incubated for 15 minutes at room temperature with 100 mM dithiothreitol to promote non-denaturing disassembly of the [4Fe-4S] cluster of cytoplasmic aconitase. This treatment is necessary as reactions of DOXol with [4Fe-4S] clusters would convert this metabolite back to DOX. Sizable amounts of DOXol would therefore go undetected if they reacted with [4Fe-4S] clusters prior to their assay. Unreacted dithiothreitol was eventually removed by sequential gel filtration on (1.5×10 cm) Sepharose 6B columns, protein reprecipitation with 65% ammonium sulfate, and extensive dialysis against 0.3 M NaCl, pH 7.0. Doxorubicin metabolism was reconstituted in 0.5 ml incubations containing cytosol (0.15 mg protein), NADPH (100 μM) and DOX (25 μM), in 0.3 M NaCl (pH 7.0) 37° C. Where indicated ethanol-dissolved taxanes (1-50 μM) were included. Aliquots of taxane-free ethanol (5 μl) were included as appropriate to adjust the final volume to 10 μl in all incubations. After 4 h DOX and DOXol were extracted with 2 ml of CHCl3/CH3OH (1:1) and separated by previously validated two-dimensional TLC on (20×20 cm) […] F524 Silica Gel Plates, using CHCl3/CH3OH/CH3COOH/H2O (80:20:14:6) as mobile phase in either dimension. Doxorubicinol was identified by cochromatography with (S)-DOXol from Streptomyces peucetius or (S) (R)-DOXol purified after NaBH4 reduction of DOX. Where indicated incubations were prepared by replacing DOX with DOX aglycone and by measuring formation of DOXol aglycone. The latter was separated from DOX aglycone by using CHCl3/CH3OH/CH3COOH (100:2:5) and CH3COOC2H5—CH3CH2OH—CH3COOH—H2O (80:10:5:5) in the first and second dimension, respectively. DOX aglycone was purified after thermoacid hydrolysis of DOX.

human cardiac microsomes [3] = test: Superoxide anion formation (SOD-inhibitable cytochrome c reduction) by deoxycholate-solubilized human heart microsomes with DOX, plus or minus taxanes; settings: for increase of DOX-dependent superoxide anion formation (in words): 10 μM taxane with DOX
Procedure: as §1, §2

human cardiac cytosol [4] = test: Reconstitution of DOX metabolism and DOXol formation, plus or minus taxanes, in human cardiac cytosol; settings: for stimulation of DOXol formation (in words): [4Fe-4S]-depleted cytosol, DOX 25 μM, taxanes 1-50 μM, 4 h, FIG. 3; for doxorubicinol formation from DOX: taxane 1 μM, DOX without taxane 0.46±0.04, n=3, P<0.05
Procedure: as §3

generation of superoxide anion radicals in microsomal fractions (human cardiac microsomes [3]; taxane 10 μM, DOX without taxane 1.6±0.1, n=4-10, P<0.05)	SMILES	stimulation of NADPH oxidation in the presence of DOX (in words) (human cardiac microsomes [1])	stimulation of conversion of DOX aglycone into DOXol aglycone (in words) (human cardiac cytosol [2])	increase of DOX-dependent superoxide anion formation (in words) (human cardiac microsomes [3]; FIG. 6)	stimulation of DOXol formation (in words) (human cardiac cytosol [4])	doxorubicinolone formation from doxorubicinone (human cardiac cytosol [2])	doxorubicinol formation from DOX (human cardiac cytosol [4])	effect of DOX on superoxide anion formation (in words) (human cardiac microsomes [3]; DOX without taxane, FIG. 6)
–	COC(=O)O[C@@]12CO[C@@H]1C[C@H](O)[C@@]1(C)C(=O)[C@H](OC(C)=O)C3=C(C)[C@@H](OC(=O)[C@H](O)[C@@H](NC(=O)c4ccccc4)c4ccccc4)C[C@@](O)([C@@H](OC(=O)c4ccccc4)[C@H]21)C3(C)C [4-desacetyl-4-methylcarbonate taxol]	stimulated this oxidation only at the highest levels tested; also recorded: stimulated NADPH oxidation only at the highest concentration tested, although this was not statistically significant	failed to stimulate; also recorded: did not increase; also recorded: has not been found to stimulate	did not increase; also recorded: did not afford any significant stimulation	did not stimulate; also recorded: did not increase	–	–	–
–	CC(=O)O[C@@]12CO[C@@H]1C[C@H](O)[C@@]1(C)C(=O)[C@H](O)C3=C(C)[C@@H](OC(=O)[C@H](O)[C@@H](NC(=O)OC(C)(C)C)c4ccccc4)C[C@@](O)([C@@H](OC(=O)c4ccccc4)[C@H]21)C3(C)C [DCT, docetaxel]	able to stimulate	able to stimulate	significant increase	stimulate	1.3±0.2 nmol/mg prot./4h	1.2±0.2 nmol/mg prot./4h	–
–	COc1cccc2c1C(=O)c1c(O)c3c(c(O)c1C2=O)C[C@@](O)(C(=O)CO)C[C@@H]3O[C@H]1C[C@H](N)[C@H](O)[C@H](C)O1 [DOX, doxorubicin]	–	–	–	–	–	–	enhances; also recorded: able to enhance
2.2±0.2 nmol/mg prot./min	CC(=O)O[C@H]1C(=O)[C@@]2(C)[C@H]([C@H](OC(=O)c3ccccc3)[C@]3(O)C[C@H](OC(=O)[C@H](O)[C@@H](NC(=O)c4ccccc4)c4ccccc4)C(C)=C1C3(C)C)[C@]1(OC(C)=O)CO[C@@H]1C[C@@H]2O [PTX, paclitaxel]	able to stimulate	able to stimulate	significant increase	stimulate	1.4±0.2 nmol/mg prot./4h	1.1±0.2 nmol/mg prot./4h	–
